In ChEMBL document CHEMBL1201862, “PubChem BioAssay data set” (2004):
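How tested: cells in 96-well plates exposed to compound for 48 hours at five concentrations. GI50 is the concentration that inhibits growth by half.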 Active and inactive are the calls of the source. No stated cut-off is given here; in the data, active = GI50 up to about 1.1 µM and inactive = higher.

Key:
Experiment in all cases: DTP human tumour cell line panel, 48 h
HCT-116 = system: HCT-116
HL-60 = system: HL-60
K562 = system: K562
KM12 = system: KM12
MOLT-4 = system: MOLT-4
Malme-3M = system: Malme-3M
NCI-H226 = system: NCI-H226
NCI-H460 = system: NCI-H460
OVCAR-3 = system: OVCAR-3
OVCAR-5 = system: OVCAR-5
SK-MEL-2 = system: SK-MEL-2
SK-OV-3 = system: SK-OV-3
SW-620 = system: SW-620
UACC-257 = system: UACC-257
UO-31 = system: UO-31
LOX IMVI = system: LOX IMVI
NCI-H522 = system: NCI-H522

Question: For `O=C1CC(c2c[nH]c3ccccc23)C(=O)N1` (stereo not drawn), which GI50 (HCT-116) is on record?
Answer: The GI50 was > 100 µM (inactive).

Question: And the GI50 (HL-60)?
Answer: The GI50 was > 100 µM (inactive).

Question: And the GI50 (K562)?
Answer: Its GI50 is > 100 µM (inactive).

Question: And the GI50 (KM12)?
Answer: Its GI50 is > 100 µM (inactive).

Question: And the GI50 (MOLT-4)?
Answer: The GI50 was > 100 µM (inactive).

Question: And the GI50 (Malme-3M)?
Answer: Its GI50 is > 100 µM (inactive).

Question: And the GI50 (NCI-H226)?
Answer: The GI50 was > 100 µM (inactive).

Question: What about the GI50 (NCI-H460) of the same molecule?
Answer: Its GI50 is > 100 µM (inactive).

Question: What about the GI50 (OVCAR-3) of the same molecule?
Answer: Its GI50 is > 100 µM (inactive).

Question: What about the GI50 (OVCAR-5) of the same molecule?
Answer: Its GI50 is > 100 µM (inactive).

Question: And the GI50 (SK-MEL-2)?
Answer: The GI50 was > 100 µM (inactive).

Question: And the GI50 (SK-OV-3)?
Answer: Its GI50 is > 100 µM (inactive).

Question: What about the GI50 (SW-620) of the same molecule?
Answer: Its GI50 is > 100 µM (inactive).

Question: And the GI50 (UACC-257)?
Answer: The GI50 was > 100 µM (inactive).

Question: What about the GI50 (UO-31) of the same molecule?
Answer: The GI50 was > 100 µM (inactive).

Question: Which results are given for `C/C(CCn1[nH]c(=O)ccc1=O)=N\O`?
Answer: GI50 (HCT-116): > 100 µM (inactive); GI50 (HL-60): > 100 µM (inactive); GI50 (K562): > 100 µM (inactive); GI50 (KM12): > 100 µM (inactive); GI50 (LOX IMVI): > 100 µM (inactive); GI50 (MOLT-4): > 100 µM (inactive); GI50 (Malme-3M): > 100 µM (inactive); GI50 (NCI-H226): > 100 µM (inactive); GI50 (NCI-H460): > 100 µM (inactive); GI50 (OVCAR-3): > 100 µM (inactive); GI50 (OVCAR-5): > 100 µM (inactive); GI50 (SK-MEL-2): > 100 µM (inactive); GI50 (SW-620): > 100 µM (inactive); GI50 (UACC-257): > 100 µM (inactive); GI50 (UO-31): > 100 µM (inactive)

Question: For `COc1cccc2cc(C)c(C(=O)c3ccccc3)nc12`, which GI50 (HCT-116) is on record?
Answer: The GI50 was > 100 µM (inactive).

Question: And the GI50 (K562)?
Answer: Its GI50 is > 100 µM (inactive).

Question: What about the GI50 (KM12) of the same molecule?
Answer: The GI50 was > 100 µM (inactive).

Question: What about the GI50 (LOX IMVI) of the same molecule?
Answer: The GI50 was > 100 µM (inactive).

Question: And the GI50 (MOLT-4)?
Answer: The GI50 was > 100 µM (inactive).

Question: What about the GI50 (Malme-3M) of the same molecule?
Answer: Its GI50 is > 100 µM (inactive).

Question: And the GI50 (NCI-H226)?
Answer: The GI50 was > 100 µM (inactive).

Question: And the GI50 (NCI-H522)?
Answer: The GI50 was > 100 µM (inactive).

Question: What about the GI50 (OVCAR-3) of the same molecule?
Answer: The GI50 was > 100 µM (inactive).

Question: And the GI50 (OVCAR-5)?
Answer: The GI50 was > 100 µM (inactive).

Question: What about the GI50 (SK-MEL-2) of the same molecule?
Answer: Its GI50 is > 100 µM (inactive).

Question: What about the GI50 (SW-620) of the same molecule?
Answer: The GI50 was > 100 µM (inactive).

Question: And the GI50 (UACC-257)?
Answer: The GI50 was 82.2 µM (inactive).

Question: What about the GI50 (UO-31) of the same molecule?
Answer: The GI50 was > 100 µM (inactive).

Question: Which results are given for `CCOC(=O)CC1=Nc2ccccc2SC1`?
Answer: GI50 (HCT-116): > 100 µM (inactive); GI50 (KM12): > 100 µM (inactive); GI50 (LOX IMVI): > 100 µM (inactive); GI50 (MOLT-4): > 100 µM (inactive); GI50 (Malme-3M): > 100 µM (inactive); GI50 (NCI-H226): > 100 µM (inactive); GI50 (NCI-H460): > 100 µM (inactive); GI50 (NCI-H522): > 100 µM (inactive); GI50 (OVCAR-3): > 100 µM (inactive); GI50 (OVCAR-5): > 100 µM (inactive); GI50 (SK-MEL-2): > 100 µM (inactive); GI50 (SW-620): > 100 µM (inactive); GI50 (UACC-257): > 100 µM (inactive); GI50 (UO-31): > 100 µM (inactive)

Question: `C[C@]12CC/C(=N\O)C=C1CC[C@@H]1C2CC[C@@]2(C)C1CC[C@@H]2OC1CCCCO1` (stereo partly drawn) was tested. Which GI50 (HCT-116) did it give?
Answer: Its GI50 is 20.1 µM (inactive).

Question: What about the GI50 (K562) of the same molecule?
Answer: The GI50 was 19 µM (inactive).

Question: What about the GI50 (KM12) of the same molecule?
Answer: The GI50 was 16.7 µM (inactive).

Question: What about the GI50 (LOX IMVI) of the same molecule?
Answer: The GI50 was 17.7 µM (inactive).

Question: And the GI50 (MOLT-4)?
Answer: Its GI50 is 12.4 µM (inactive).

Question: What about the GI50 (Malme-3M) of the same molecule?
Answer: Its GI50 is 21.9 µM (inactive).

Question: What about the GI50 (NCI-H460) of the same molecule?
Answer: Its GI50 is 20.4 µM (inactive).

Question: And the GI50 (NCI-H522)?
Answer: The GI50 was 17.4 µM (inactive).

Question: And the GI50 (OVCAR-3)?
Answer: The GI50 was 16.9 µM (inactive).

Question: And the GI50 (OVCAR-5)?
Answer: Its GI50 is 15.5 µM (inactive).

Question: And the GI50 (SK-MEL-2)?
Answer: The GI50 was 16.7 µM (inactive).

Question: What about the GI50 (SK-OV-3) of the same molecule?
Answer: Its GI50 is 21.9 µM (inactive).

Question: And the GI50 (SW-620)?
Answer: Its GI50 is 18.1 µM (inactive).

Question: And the GI50 (UACC-257)?
Answer: Its GI50 is 20.4 µM (inactive).

Question: What about the GI50 (UO-31) of the same molecule?
Answer: The GI50 was 21.7 µM (inactive).

Question: For `COC(=O)/C(=N\Nc1nc(S)nn1N)C(C#N)c1ccc(Cl)cc1` (stereo not drawn), which GI50 (HCT-116) is on record?
Answer: The GI50 was > 100 µM (inactive).

Question: What about the GI50 (KM12) of the same molecule?
Answer: Its GI50 is > 100 µM (inactive).

Question: What about the GI50 (LOX IMVI) of the same molecule?
Answer: The GI50 was > 100 µM (inactive).

Question: And the GI50 (Malme-3M)?
Answer: Its GI50 is > 100 µM (inactive).

Question: What about the GI50 (NCI-H226) of the same molecule?
Answer: The GI50 was > 100 µM (inactive).

Question: What about the GI50 (NCI-H460) of the same molecule?
Answer: Its GI50 is > 100 µM (inactive).

Question: And the GI50 (OVCAR-3)?
Answer: The GI50 was > 100 µM (inactive).

Question: And the GI50 (OVCAR-5)?
Answer: The GI50 was > 100 µM (inactive).

Question: And the GI50 (SK-MEL-2)?
Answer: The GI50 was > 100 µM (inactive).

Question: What about the GI50 (SK-OV-3) of the same molecule?
Answer: The GI50 was > 100 µM (inactive).

Question: And the GI50 (SW-620)?
Answer: Its GI50 is > 100 µM (inactive).

Question: What about the GI50 (UACC-257) of the same molecule?
Answer: The GI50 was > 100 µM (inactive).

Question: And the GI50 (UO-31)?
Answer: Its GI50 is > 100 µM (inactive).

Question: How did the GI50 (HCT-116) turn out when `Cc1cc(C)nc(NS(=O)(=O)c2ccc(Nc3c4ccccc4nc4c(C(=O)NCCN(C)C)ccc(Cl)c34)cc2)n1` was run?
Answer: Its GI50 is 0.798 µM (active).

Question: What about the GI50 (HL-60) of the same molecule?
Answer: The GI50 was 1.44 µM (inactive).

Question: What about the GI50 (K562) of the same molecule?
Answer: The GI50 was 1.14 µM (inactive).

Question: What about the GI50 (KM12) of the same molecule?
Answer: The GI50 was 1.7 µM (inactive).

Question: And the GI50 (LOX IMVI)?
Answer: Its GI50 is 0.711 µM (active).

Question: What about the GI50 (MOLT-4) of the same molecule?
Answer: The GI50 was 0.255 µM (active).

Question: And the GI50 (NCI-H226)?
Answer: Its GI50 is 0.7 µM (active).

Question: And the GI50 (NCI-H460)?
Answer: Its GI50 is 0.39 µM (active).

Question: And the GI50 (NCI-H522)?
Answer: Its GI50 is 1.24 µM (inactive).

Question: What about the GI50 (OVCAR-3) of the same molecule?
Answer: The GI50 was 7.64 µM (inactive).

Question: What about the GI50 (OVCAR-5) of the same molecule?
Answer: Its GI50 is 4.7 µM (inactive).

Question: What about the GI50 (SK-MEL-2) of the same molecule?
Answer: Its GI50 is 3.61 µM (inactive).

Question: What about the GI50 (SW-620) of the same molecule?
Answer: The GI50 was 0.679 µM (active).

Question: And the GI50 (UO-31)?
Answer: Its GI50 is 1.71 µM (inactive).

Question: `COCC1C(=O)c2cc3c(cc2C12C=CC1(C=C2)OCCO1)OCO3` (stereo not drawn) was tested. Which GI50 (HCT-116) did it give?
Answer: Its GI50 is 2.21 µM (inactive).

Question: What about the GI50 (HL-60) of the same molecule?
Answer: Its GI50 is 2.09 µM (inactive).

Question: What about the GI50 (K562) of the same molecule?
Answer: The GI50 was 2 µM (inactive).

Question: And the GI50 (KM12)?
Answer: The GI50 was 4.57 µM (inactive).

Question: What about the GI50 (MOLT-4) of the same molecule?
Answer: The GI50 was 1.65 µM (inactive).

Question: And the GI50 (Malme-3M)?
Answer: The GI50 was 13.8 µM (inactive).

Question: What about the GI50 (NCI-H226) of the same molecule?
Answer: Its GI50 is 10.9 µM (inactive).

Question: And the GI50 (NCI-H460)?
Answer: Its GI50 is 13.8 µM (inactive).

Question: What about the GI50 (NCI-H522) of the same molecule?
Answer: The GI50 was 1.63 µM (inactive).

Question: What about the GI50 (OVCAR-3) of the same molecule?
Answer: The GI50 was 13.7 µM (inactive).

Question: And the GI50 (SK-MEL-2)?
Answer: Its GI50 is 11.7 µM (inactive).

Question: What about the GI50 (SK-OV-3) of the same molecule?
Answer: Its GI50 is 16.1 µM (inactive).

Question: And the GI50 (SW-620)?
Answer: Its GI50 is 2.48 µM (inactive).

Question: And the GI50 (UACC-257)?
Answer: Its GI50 is 17.9 µM (inactive).

Question: What does the source list for `CCc1[nH]c(=O)c2oc3cc4ccccc4cc3c2c1C(=O)O`?
Answer: GI50 (HCT-116): > 10 µM (inactive); GI50 (HL-60): > 10 µM (inactive); GI50 (KM12): > 10 µM (inactive); GI50 (LOX IMVI): > 10 µM (inactive); GI50 (Malme-3M): > 10 µM (inactive); GI50 (NCI-H226): > 10 µM (inactive); GI50 (NCI-H460): > 10 µM (inactive); GI50 (NCI-H522): > 10 µM (inactive); GI50 (OVCAR-3): > 10 µM (inactive); GI50 (OVCAR-5): > 10 µM (inactive); GI50 (SK-MEL-2): > 10 µM (inactive); GI50 (SW-620): > 10 µM (inactive); GI50 (UACC-257): > 10 µM (inactive); GI50 (UO-31): > 10 µM (inactive)
